Data set [1] concerns the target indoleamine 2, 3-dioxygenase (IDO1) (Homo sapiens, UniProt P14902). Description: IDO1 HeLa RapidFire MS assay (kynurenine detection by mass spectrometry). More on the design: to induce the expression of indoleamine 2, 3-dioxygenase (IDO1). The class given is cell-based. To be noted: HeLa cells, pIC50, read-out: IDO1_HELA_PXC50 (converted). Put shortly:
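Compound potency reported as pIC50 from kynurenine/internal-standard ratio (RapidFire MS) in supernatant of IFN-γ-induced (10 nM) HeLa cells, 5,000 per well, after 2 days' treatment with 11-point dilutions. Cytotoxicity in the same format by luminescent ATP detection, reported as pCC50.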

Data set [2] relates to human epithelial HeLa cells. Briefly: HeLa cytotoxicity assay (CellTiter-Glo). The format is cell-based. The note with it: pCC50. Put shortly:
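Read-out is CellTiter-Glo luminescence after 2 days at 37 °C, on IFN-γ-stimulated (10 nM) HeLa cells seeded at 5,000/well with compounds in 11-point 3-fold dose series. pCC50 from four-parameter curve fit; wells without cells set 100% cytotoxicity, stimulated cells with DMSO set 0%.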

Results on two molecules are retold here after US10899754B2, “Modulators of indoleamine 2,3-dioxygenase” (GLAXOSMITHKLINE INTELLECTUAL PROPERTY DEVELOPMENT LIMITED, priority 2016, dated 2021).

Molecules are shown by their SMILES.

indoleamine 2, 3-dioxygenase (IDO1), sequence (P14902 whole entry): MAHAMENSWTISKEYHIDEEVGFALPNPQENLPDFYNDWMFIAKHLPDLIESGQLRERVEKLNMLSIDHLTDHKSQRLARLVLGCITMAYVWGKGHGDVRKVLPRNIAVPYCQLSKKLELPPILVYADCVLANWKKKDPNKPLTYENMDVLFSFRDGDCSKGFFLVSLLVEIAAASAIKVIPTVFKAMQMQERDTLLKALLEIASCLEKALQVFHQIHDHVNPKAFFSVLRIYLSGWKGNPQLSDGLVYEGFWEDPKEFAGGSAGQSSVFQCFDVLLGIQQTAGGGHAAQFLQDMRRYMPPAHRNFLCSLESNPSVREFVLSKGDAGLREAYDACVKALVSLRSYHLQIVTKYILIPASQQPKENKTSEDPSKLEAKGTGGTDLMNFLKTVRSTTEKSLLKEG

As for `CC(C)CN(c1ccc([C@H](C)CC(=O)O)cc1Nc1nnc(C2CC2)s1)C1CCOCC1` [Example 23, (R)-3-(3-((5-cyclopropyl-1,3,4-thiadiazol-2-yl)amino)-4-(isobutyl (tetrahydro-2H-pyran-4-yl)amino)phenyl)butanoic Acid], the IC50 in data set [1] is 3.98 nM. Further, in data set [2], the HELA_IDO1_TOX_PXC50 is less than 5.

Take `CC(C)CN(c1ccc([C@H](C)CC(=O)O)cc1Nc1nc(C(F)(F)F)ns1)C1CCOCC1` [Example 20, (R)-3-(4-(Isobutyl(tetrahydro-2H-pyran-4-yl)amino)-3-((3-(trifluoromethyl)-1,2,4-thiadiazol-5-yl)amino)phenyl)butanoic Acid]: the IC50 in data set [1] was 2.51 nM. For the same molecule, the HELA_IDO1_TOX_PXC50 in data set [2] was less than 5.
